Reference: US10517889B2, “Modulators of SMAD7 expression” (Ionis Pharmaceuticals, Inc., priority 2017, dated 2019)
Strand notation (5' to 3'): a small letter for the sugar, then the base; units joined by * are phosphorothioate-linked, units joined directly phosphodiester-linked; [ ] holds rarer units or linkages, { } end groups; capitals alone tell only the bases. k = constrained ethyl (cEt); [5mC] = 5-methylcytosine; d = 2'-deoxy (DNA)

System: human SMAD7 mRNA
Assay: Antisense inhibition of human SMAD7 mRNA expression in Hep3B cells by 3-10-3 cEt gapmers, 10,000 nM, electroporation (Example 2)
Format: cell-based
Details: Hep3B cells, 10,000 nM antisense oligonucleotide, electroporation, approximately 24 hours, RT-PCR primer probe set RTS5062, relative to untreated control cells
How it was run: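 Percent inhibition of SMAD7 mRNA, relative to untreated cells, after ~24 h exposure of electroporated Hep3B cells to 10,000 nM cEt gapmer; levels by qRT-PCR, corrected for total RNA.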

Substance | % Inhibition
799971 (kG*kT*kA*dA*dA*dA*d[5mC]*dT*dT*dG*d[5mC]*dT*dG*kA*kG*kA; antisense) [compound 799971] | 31%
799837 (antisense kT*k[5mC]*kA*dT*dA*dA*dG*d[5mC]*dA*dT*dA*dG*dA*kT*kT*kT) [compound 799837] | 38%
799871 (kT*kT*kG*dG*dA*d[5mC]*dA*d[5mC]*dA*d[5mC]*dT*d[5mC]*dA*k[5mC]*kT*kG; antisense) [compound 799871] | 0%
800076 (antisense k[5mC]*kG*k[5mC]*dT*dT*d[5mC]*d[5mC]*d[5mC]*dT*dA*d[5mC]*dA*d[5mC]*kA*kG*kT) [compound 800076] | 25%
800015 (k[5mC]*kT*kT*dT*dA*dA*dG*dG*dT*dG*dT*dT*dG*k[5mC]*k[5mC]*k[5mC]; antisense) [compound 800015] | 26%
772628 (kG*k[5mC]*k[5mC]*dT*dT*dG*dA*dT*dG*dG*dA*dG*dA*kA*kA*k[5mC]; antisense) [compound 772628] | 33%
798928 (antisense kT*kA*kG*d[5mC]*dA*dG*d[5mC]*dA*dA*dA*dG*dT*dA*kG*kT*kT) [compound 798928] | 6%
799933 (antisense kT*kA*k[5mC]*dT*dA*dT*dT*d[5mC]*dA*dT*d[5mC]*dA*d[5mC]*k[5mC]*k[5mC]*kT) [compound 799933] | 22%
798896 (kG*kG*kG*dT*dG*dT*dA*dG*d[5mC]*dA*d[5mC]*dT*dG*kG*k[5mC]*k[5mC]; antisense) [compound 798896] | 46%

Same assay, conditions: Hep3B cells, electroporation with 10,000 nM antisense oligonucleotide, approximately 24 hours, SMAD7 mRNA by RT-PCR (RTS5062), relative to untreated control cells

Substance | % Inhibition
798755 (kG*k[5mC]*k[5mC]*d[5mC]*dA*dG*d[5mC]*d[5mC]*dT*dG*d[5mC]*dA*dG*kT*k[5mC]*k[5mC]; antisense) [compound 798755] | 46%
799393 (antisense kT*kG*k[5mC]*dT*dT*dT*dG*d[5mC]*dG*dG*dG*d[5mC]*d[5mC]*kA*k[5mC]*kT) [compound 799393] | 56%
800042 (kT*kG*kT*d[5mC]*dA*dG*d[5mC]*d[5mC]*dA*d[5mC]*d[5mC]*dT*dA*kG*kG*k[5mC]; antisense) [compound 800042] | 0%
830024 (antisense kT*kG*kT*dA*dA*dA*dT*d[5mC]*dG*dA*dA*dA*dG*k[5mC]*kA*kA) [compound 830024] | 40%
799902 (antisense kG*kG*kA*dA*dG*dA*d[5mC]*dA*d[5mC]*dA*dA*dG*dG*kG*k[5mC]*kT) [compound 799902] | 34%
772573 (antisense kA*kG*k[5mC]*dA*d[5mC]*dA*d[5mC]*d[5mC]*dA*dG*d[5mC]*dT*d[5mC]*kG*kG*kG) [compound 772573] | 57%
799430 (antisense kA*kG*k[5mC]*d[5mC]*dA*d[5mC]*dA*dA*dG*dT*d[5mC]*dA*d[5mC]*kA*kA*k[5mC]) [compound 799430] | 29%
798752 (k[5mC]*kG*kG*d[5mC]*d[5mC]*dG*dG*dG*d[5mC]*dA*dG*d[5mC]*dA*kG*kG*kA; antisense) [compound 798752] | 0%
800087 (antisense kT*kA*kA*dT*dA*dG*dG*dA*dA*dA*dA*d[5mC]*dA*kG*kT*k[5mC]) [compound 800087] | 0%
830070 (kA*kA*kA*dG*dG*dT*dA*dA*dG*d[5mC]*d[5mC]*dA*dG*k[5mC]*kT*k[5mC]; antisense) [compound 830070] | 44%
830120 (kG*k[5mC]*k[5mC]*dG*dA*d[5mC]*d[5mC]*dT*dT*d[5mC]*d[5mC]*dT*d[5mC]*k[5mC]*k[5mC]*kA; antisense) [compound 830120] | 27%
799862 (k[5mC]*k[5mC]*k[5mC]*dA*d[5mC]*d[5mC]*dG*d[5mC]*dA*dT*dG*d[5mC]*dG*kA*kT*k[5mC]; antisense) [compound 799862] | 14%
799469 (antisense k[5mC]*kT*k[5mC]*d[5mC]*dG*d[5mC]*dA*dT*dA*dG*dA*d[5mC]*dA*kG*kA*kT) [compound 799469] | 69%
799374 (antisense kT*kT*kG*d[5mC]*dA*d[5mC]*d[5mC]*dT*dT*dT*dT*dT*dA*kA*kA*k[5mC]) [compound 799374] | 30%
799392 (antisense kT*kA*kT*dT*dA*dG*dA*d[5mC]*d[5mC]*dG*dG*d[5mC]*dA*k[5mC]*k[5mC]*kA) [compound 799392] | 46%
830089 (kA*kA*kG*dA*d[5mC]*d[5mC]*d[5mC]*dT*dG*dT*dA*dA*dG*k[5mC]*kT*kT; antisense) [compound 830089] | 9%
830073 (kT*k[5mC]*kA*dG*dA*dT*d[5mC]*dA*dA*dA*dG*dG*dT*kA*kA*kG; antisense) [compound 830073] | 41%
799485 (antisense kA*kG*k[5mC]*d[5mC]*dA*d[5mC]*dT*d[5mC]*d[5mC]*d[5mC]*d[5mC]*dG*d[5mC]*k[5mC]*kA*k[5mC]) [compound 799485] | 0%
830195 (antisense kA*kA*k[5mC]*d[5mC]*dT*dT*dT*dT*d[5mC]*d[5mC]*dG*dG*dT*kA*kT*kT) [compound 830195] | 35%
830162 (antisense kA*k[5mC]*kA*dA*dG*dG*dT*dG*dA*dA*dA*dG*dT*kT*kA*kT) [compound 830162] | 20%
830087 (kT*kT*kT*dT*dA*d[5mC]*dA*dG*dG*dA*dT*dA*d[5mC]*kA*k[5mC]*kT; antisense) [compound 830087] | 35%

Same assay, conditions: Hep3B cells, electroporation with 10,000 nM antisense oligonucleotide, approximately 24 hours, primer probe set RTS5062, relative to untreated control cells

Substance | % inhibition of SMAD7 mRNA expression | % Inhibition
799025 (k[5mC]*kG*k[5mC]*dT*dT*dG*dG*dG*dA*d[5mC]*dT*dG*d[5mC]*kA*kA*kA; antisense) [compound 799025] | 10% | –
799062 (antisense k[5mC]*kT*kG*dG*dT*dT*d[5mC]*dG*dG*d[5mC]*d[5mC]*dA*d[5mC]*kT*kA*kG) [compound 799062] | – | 45%
772532 (antisense k[5mC]*kA*kG*d[5mC]*dA*dG*dG*d[5mC]*dG*d[5mC]*dA*dG*dG*k[5mC]*kG*kA) [compound 772532] | 21% | –
799032 (kA*kG*kG*dT*dA*d[5mC]*dT*dG*d[5mC]*d[5mC]*dT*d[5mC]*dT*kG*k[5mC]*k[5mC]; antisense) [compound 799032] | 42% | –
799199 (antisense kG*kG*kA*dG*dT*d[5mC]*d[5mC]*dT*dT*dT*d[5mC]*dT*d[5mC]*kT*k[5mC]*kT) [compound 799199] | 24% | –
798956 (antisense k[5mC]*kT*kT*dT*dT*d[5mC]*dA*dT*dA*dA*dG*d[5mC]*dT*kA*kT*kT) [compound 798956] | – | 22%
799041 (kG*kG*k[5mC]*dA*dG*d[5mC]*dT*dG*d[5mC]*dT*dG*dG*dG*kA*k[5mC]*k[5mC]; antisense) [compound 799041] | – | 22%
799083 (antisense kG*kG*kA*dA*dG*d[5mC]*d[5mC]*d[5mC]*dA*dT*d[5mC]*dT*d[5mC]*kA*kG*kG) [compound 799083] | 0% | –

Same assay, conditions: Hep3B cells, electroporation, 10,000 nM antisense oligonucleotide, approximately 24 hours, RTS5062, relative to untreated control cells

Substance | % inhibition of SMAD7 mRNA expression
799616 (kG*kG*k[5mC]*dT*d[5mC]*d[5mC]*dT*dA*d[5mC]*d[5mC]*d[5mC]*dG*d[5mC]*k[5mC]*k[5mC]*kA; antisense) [compound 799616] | 80%

Same assay, conditions: SMAD7 mRNA, Hep3B cells, 10,000 nM antisense oligonucleotide, electroporation, approximately 24 hours, primer probe set RTS5062, relative to untreated control cells

Substance | % Inhibition
790652 (k[5mC]*kA*k[5mC]*d[5mC]*dA*dG*dT*dT*dG*dG*dT*dT*dT*kG*kA*kG; antisense) [compound 790652] | 25%
829784 (antisense kA*kG*kA*dT*d[5mC]*d[5mC]*dG*dG*d[5mC]*d[5mC]*dA*d[5mC]*d[5mC]*kT*kG*kA) [compound 829784] | 32%
772593 (kA*k[5mC]*kG*d[5mC]*dA*d[5mC]*d[5mC]*dA*dG*dT*dG*dT*dG*kA*k[5mC]*k[5mC]; antisense) [compound 772593] | 42%
800786 (antisense kG*k[5mC]*kA*d[5mC]*d[5mC]*dA*dG*dT*dG*dT*dG*dA*d[5mC]*k[5mC]*kG*kA) [compound 800786] | 0%

Same assay, conditions: SMAD7 mRNA, Hep3B cells, electroporation with 10,000 nM antisense oligonucleotide, approximately 24 hours, primer probe set RTS5062, relative to untreated control cells

Substance | % Inhibition
829899 (antisense kA*k[5mC]*kG*dG*dG*d[5mC]*dA*dG*d[5mC]*dT*dG*d[5mC]*dT*kG*kA*kT) [compound 829899] | 20%
829810 (kA*kT*k[5mC]*dG*dG*dG*dT*dA*dT*d[5mC]*dT*dG*dG*kA*kG*kT; antisense) [compound 829810] | 29%
829982 (k[5mC]*kG*kG*dT*dG*dA*dT*dT*dG*d[5mC]*d[5mC]*dT*dT*kG*kA*kT; antisense) [compound 829982] | 44%
829945 (kG*k[5mC]*k[5mC]*dA*dG*dT*dT*dA*dA*dT*d[5mC]*dA*dT*kT*kA*k[5mC]; antisense) [compound 829945] | 31%
829906 (antisense k[5mC]*k[5mC]*kG*dG*d[5mC]*dT*dG*dT*dT*dG*dA*dA*dG*kA*kT*kG) [compound 829906] | 0%
829922 (antisense kG*kT*kA*dT*d[5mC]*dA*dT*dA*d[5mC]*dG*dA*dG*dT*kG*kT*kA) [compound 829922] | 56%
829900 (antisense k[5mC]*kA*k[5mC]*dG*dG*dG*d[5mC]*dA*dG*d[5mC]*dT*dG*d[5mC]*kT*kG*kA) [compound 829900] | 0%
